Test results from publication PMC9157009, “Protein proximity networks and functional evaluation of the casein kinase 1 gamma family reveal unique roles for CK1γ3 in WNT signaling” (The Journal of Biological Chemistry, 2022).
pIC50: −log10 of the molar value. Values joined by “and” are separate entries in the source; they are usually repeats but may differ in a detail not shown here. Equal values may be shown once.

Experiments:
CK1γ2 (NLuc-CK1γ2) = target: T1, CK1γ2 (NLuc-CK1γ2) (Homo sapiens, UniProt P78368); assay: NanoBRET cellular target engagement assay, NLuc-CK1γ2 in HEK293T cells; assay type: cell-based; conditions: live HEK293T cells, 0.5 μM tracer K-10; read-out: NL-CK1γ2 NanoBRET IC50
T1 construct: host or cells: HEK293T
T1 sequence (P78368 whole entry): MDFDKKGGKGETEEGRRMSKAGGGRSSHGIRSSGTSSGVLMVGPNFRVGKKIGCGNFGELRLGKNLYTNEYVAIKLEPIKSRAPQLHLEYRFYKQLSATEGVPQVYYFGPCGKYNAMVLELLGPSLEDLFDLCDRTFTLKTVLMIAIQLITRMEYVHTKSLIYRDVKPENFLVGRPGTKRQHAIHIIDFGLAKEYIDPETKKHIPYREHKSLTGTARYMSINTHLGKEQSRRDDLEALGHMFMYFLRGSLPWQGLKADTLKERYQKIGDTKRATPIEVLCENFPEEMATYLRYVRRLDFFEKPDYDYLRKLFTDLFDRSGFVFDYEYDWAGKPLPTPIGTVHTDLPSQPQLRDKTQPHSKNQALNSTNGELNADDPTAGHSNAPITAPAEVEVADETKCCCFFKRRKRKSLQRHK
Procedure: HEK293T cells (hypotriploid, fetal) were purchased from ATCC. These cells were grown in Dulbecco’s modified Eagle’s medium (Gibco) supplemented with 10% (v/v) fetal bovine serum (Corning). They were incubated in 5% CO2 at 37 °C and passaged every 72 h with trypsin and not allowed to reach confluency. Constructs for NanoBRET measurements of CK1γ2 (NLuc-CK1γ2) and GSK3β (NLuc-GSK3β) were kindly provided by Promega. NanoBRET assays were carried out as described previously ([74]). Preferred NLuc orientations, both N-terminal in this case, are indicated in parentheses after each construct. Assays were carried out in dose–response as described by the manufacturer using 0.5 μM of tracer K-10 for CK1γ2 and 0.063 μM of tracer K-8 for GSK3β. Two biological replicates were executed with two technical replicates to produce the graphs with error bars shown in Figures 6E, 7E, 8, A and B. Tracer titration curves for these kinases that motivated our tracer selection and working concentration can be found on the Promega website.

DYRK1A = target: T2, DYRK1A (Homo sapiens, UniProt Q13627); assay: scanMAX binding assay, DYRK1A; conditions: Percent of Control; legend and method: 1 μM; read-out: DYRK1A PoC @ 1mM
T2 construct: purchased Eurofins DiscoverX Corporation
Excerpt: (§1) As described previously, this commercial assay platform screens against 403 WT human kinases in binding assays and provides PoC values ([73]).

CIT = target: T3, CIT (Homo sapiens, UniProt O14578); assay: scanMAX binding assay, CIT; conditions: Percent of Control; legend and method: 1 μM; read-out: CIT PoC @ 1 µM
T3 construct: purchased Eurofins DiscoverX Corporation
Excerpt: as §1

CK1γ1 = target: T4, CK1γ1 (Homo sapiens, UniProt Q9HCP0); assay: Eurofins kinase enzymatic radiometric assay, CK1γ1; assay type: biochemical; conditions: Km = ATP, 9-pt curve in duplicate
T4 construct: purchased Eurofins
T4 sequence (Q9HCP0 whole entry): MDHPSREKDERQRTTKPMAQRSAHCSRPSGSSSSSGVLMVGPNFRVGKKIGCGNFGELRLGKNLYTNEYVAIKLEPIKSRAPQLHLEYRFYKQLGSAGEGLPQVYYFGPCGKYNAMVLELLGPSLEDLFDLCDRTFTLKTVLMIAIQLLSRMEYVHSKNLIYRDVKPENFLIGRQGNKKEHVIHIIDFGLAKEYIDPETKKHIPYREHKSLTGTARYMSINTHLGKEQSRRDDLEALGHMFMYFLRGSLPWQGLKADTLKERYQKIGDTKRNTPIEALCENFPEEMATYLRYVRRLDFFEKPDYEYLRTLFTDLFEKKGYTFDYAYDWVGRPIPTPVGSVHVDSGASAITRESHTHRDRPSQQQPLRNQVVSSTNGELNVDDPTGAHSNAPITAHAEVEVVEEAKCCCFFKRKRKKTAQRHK
Excerpt: Details related to the substrate used, protein constructs, controls, and assay protocol for each kinase assay are included on the Eurofins website: https://www.eurofinsdiscoveryservices.com/.

IRAK1 = target: T5, IRAK1 (Homo sapiens, UniProt P51617); assay: scanMAX binding assay, IRAK1; conditions: Percent of Control; legend and method: 1 μM; read-out: IRAK1 PoC @ 1 µM
T5 construct: purchased Eurofins DiscoverX Corporation
T5 sequence (P51617 whole entry): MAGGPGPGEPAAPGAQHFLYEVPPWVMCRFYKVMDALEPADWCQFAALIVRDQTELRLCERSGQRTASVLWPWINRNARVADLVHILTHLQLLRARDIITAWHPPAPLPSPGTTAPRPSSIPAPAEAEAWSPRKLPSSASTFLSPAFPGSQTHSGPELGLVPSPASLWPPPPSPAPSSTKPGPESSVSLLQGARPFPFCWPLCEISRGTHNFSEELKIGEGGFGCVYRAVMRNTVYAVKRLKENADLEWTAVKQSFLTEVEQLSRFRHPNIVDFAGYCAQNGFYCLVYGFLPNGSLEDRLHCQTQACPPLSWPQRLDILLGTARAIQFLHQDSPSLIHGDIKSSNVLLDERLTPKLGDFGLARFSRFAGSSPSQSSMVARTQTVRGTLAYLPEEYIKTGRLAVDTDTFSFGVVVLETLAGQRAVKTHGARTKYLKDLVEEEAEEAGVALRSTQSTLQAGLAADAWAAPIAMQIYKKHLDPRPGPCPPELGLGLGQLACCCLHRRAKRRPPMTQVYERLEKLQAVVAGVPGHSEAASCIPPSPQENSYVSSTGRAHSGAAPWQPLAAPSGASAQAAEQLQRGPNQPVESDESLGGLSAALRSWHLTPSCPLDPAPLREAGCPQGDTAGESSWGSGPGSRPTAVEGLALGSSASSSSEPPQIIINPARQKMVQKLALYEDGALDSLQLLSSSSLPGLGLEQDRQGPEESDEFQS
Excerpt: as §1

GSK3α = target: T6, GSK3α (Homo sapiens, UniProt P49840); assay: scanMAX binding assay, GSK3α; conditions: Percent of Control; legend and method: 1 μM
T6 construct: purchased Eurofins DiscoverX Corporation
T6 sequence (P49840 whole entry): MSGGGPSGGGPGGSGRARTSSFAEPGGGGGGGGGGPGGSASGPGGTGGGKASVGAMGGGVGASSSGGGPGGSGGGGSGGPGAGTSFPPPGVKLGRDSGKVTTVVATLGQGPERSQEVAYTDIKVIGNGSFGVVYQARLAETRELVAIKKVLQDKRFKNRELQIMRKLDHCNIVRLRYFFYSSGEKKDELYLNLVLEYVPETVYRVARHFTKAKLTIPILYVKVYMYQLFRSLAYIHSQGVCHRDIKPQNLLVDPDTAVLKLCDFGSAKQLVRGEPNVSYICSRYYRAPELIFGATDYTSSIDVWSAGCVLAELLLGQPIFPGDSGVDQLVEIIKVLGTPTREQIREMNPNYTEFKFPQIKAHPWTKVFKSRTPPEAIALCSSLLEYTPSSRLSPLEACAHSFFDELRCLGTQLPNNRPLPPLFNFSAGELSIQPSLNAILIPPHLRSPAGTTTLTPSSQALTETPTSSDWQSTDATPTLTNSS
Excerpt: as §1

CSNK1A1L = CSNK1A1L (Homo sapiens, UniProt Q8N752); assay: scanMAX binding assay, CSNK1A1L; conditions: Percent of Control; legend and method: 1 μM; read-out: CSNK1A1L PoC @ 1 µM
Chain of CSNK1A1L (Q8N752 whole entry): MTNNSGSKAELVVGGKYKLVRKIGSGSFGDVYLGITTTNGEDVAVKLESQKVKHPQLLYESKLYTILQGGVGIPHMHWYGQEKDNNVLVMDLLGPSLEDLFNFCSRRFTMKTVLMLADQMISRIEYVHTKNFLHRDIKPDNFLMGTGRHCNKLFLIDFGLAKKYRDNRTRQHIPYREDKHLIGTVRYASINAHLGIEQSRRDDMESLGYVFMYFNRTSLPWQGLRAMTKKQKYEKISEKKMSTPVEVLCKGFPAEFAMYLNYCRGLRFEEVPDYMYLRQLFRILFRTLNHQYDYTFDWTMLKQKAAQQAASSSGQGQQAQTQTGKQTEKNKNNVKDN
Excerpt: as §1

CSNK1D = CSNK1D (Homo sapiens, UniProt P48730); assay: scanMAX binding assay, CSNK1D; conditions: Percent of Control; legend and method: 1 μM; read-out: CSNK1D PoC @ 1 µM
Chain of CSNK1D (P48730 whole entry): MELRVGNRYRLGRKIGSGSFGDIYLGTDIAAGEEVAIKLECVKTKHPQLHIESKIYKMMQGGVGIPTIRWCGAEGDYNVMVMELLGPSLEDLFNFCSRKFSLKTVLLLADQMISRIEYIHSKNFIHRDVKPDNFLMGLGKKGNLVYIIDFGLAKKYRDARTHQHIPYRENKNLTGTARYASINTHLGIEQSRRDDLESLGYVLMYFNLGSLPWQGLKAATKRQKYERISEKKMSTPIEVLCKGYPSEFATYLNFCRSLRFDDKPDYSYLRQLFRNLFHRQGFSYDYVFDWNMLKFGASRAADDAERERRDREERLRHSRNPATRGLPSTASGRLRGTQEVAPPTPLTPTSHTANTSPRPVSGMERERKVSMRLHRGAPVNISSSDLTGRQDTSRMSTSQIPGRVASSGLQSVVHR
Excerpt: as §1

CSNK1E = target: T7, CSNK1E (Homo sapiens, UniProt P49674); assay: scanMAX binding assay, CSNK1E; conditions: Percent of Control; legend and method: 1 μM; read-out: CSNK1E PoC @ 1 µM
T7 construct: purchased Eurofins DiscoverX Corporation
T7 sequence (P49674 whole entry): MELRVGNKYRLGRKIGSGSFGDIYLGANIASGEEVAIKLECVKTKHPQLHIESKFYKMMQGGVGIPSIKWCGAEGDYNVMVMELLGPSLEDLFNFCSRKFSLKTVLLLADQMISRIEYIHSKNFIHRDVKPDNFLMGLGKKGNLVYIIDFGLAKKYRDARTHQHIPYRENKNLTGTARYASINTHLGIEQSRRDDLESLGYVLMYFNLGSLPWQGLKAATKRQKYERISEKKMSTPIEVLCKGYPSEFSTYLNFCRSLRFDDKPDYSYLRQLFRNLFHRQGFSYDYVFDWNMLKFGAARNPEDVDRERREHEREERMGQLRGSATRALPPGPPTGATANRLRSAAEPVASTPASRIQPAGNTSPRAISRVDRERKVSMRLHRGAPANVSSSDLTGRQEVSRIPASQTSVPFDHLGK
Excerpt: as §1

GSK3β = target: T8, GSK3β (Homo sapiens, UniProt P49841); assay: scanMAX binding assay, GSK3β; conditions: Percent of Control; legend and method: 1 μM
T8 construct: purchased Eurofins DiscoverX Corporation
T8 sequence (P49841 whole entry): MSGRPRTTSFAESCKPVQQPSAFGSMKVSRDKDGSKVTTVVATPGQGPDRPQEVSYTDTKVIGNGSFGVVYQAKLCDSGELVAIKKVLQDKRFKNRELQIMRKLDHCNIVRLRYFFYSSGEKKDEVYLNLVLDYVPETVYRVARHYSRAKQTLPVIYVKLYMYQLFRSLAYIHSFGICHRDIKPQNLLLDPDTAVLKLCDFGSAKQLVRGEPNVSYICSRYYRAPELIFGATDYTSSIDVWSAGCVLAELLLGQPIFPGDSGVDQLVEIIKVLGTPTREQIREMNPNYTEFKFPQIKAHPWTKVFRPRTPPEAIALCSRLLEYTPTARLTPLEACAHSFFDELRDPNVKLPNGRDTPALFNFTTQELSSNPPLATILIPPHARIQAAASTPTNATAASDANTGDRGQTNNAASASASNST
Excerpt: as §1

CK1γ2 = target: T9, CK1γ2 (Homo sapiens, UniProt P78368); assay: scanMAX binding assay, CK1γ2; conditions: Percent of Control; legend and method: 1 μM; read-out: CK1γ2 PoC @ 1 µM
T9 construct: purchased Eurofins
T9 sequence (P78368 whole entry): as the sequence (P78368 whole entry) above
Excerpt: as §1

DYRK1B = target: T10, DYRK1B (Homo sapiens, UniProt Q9Y463); assay: scanMAX binding assay, DYRK1B; conditions: Percent of Control; legend and method: 1 μM; read-out: DYRK1B PoC @ 1 µM
T10 construct: purchased Eurofins DiscoverX Corporation
T10 sequence (Q9Y463 whole entry): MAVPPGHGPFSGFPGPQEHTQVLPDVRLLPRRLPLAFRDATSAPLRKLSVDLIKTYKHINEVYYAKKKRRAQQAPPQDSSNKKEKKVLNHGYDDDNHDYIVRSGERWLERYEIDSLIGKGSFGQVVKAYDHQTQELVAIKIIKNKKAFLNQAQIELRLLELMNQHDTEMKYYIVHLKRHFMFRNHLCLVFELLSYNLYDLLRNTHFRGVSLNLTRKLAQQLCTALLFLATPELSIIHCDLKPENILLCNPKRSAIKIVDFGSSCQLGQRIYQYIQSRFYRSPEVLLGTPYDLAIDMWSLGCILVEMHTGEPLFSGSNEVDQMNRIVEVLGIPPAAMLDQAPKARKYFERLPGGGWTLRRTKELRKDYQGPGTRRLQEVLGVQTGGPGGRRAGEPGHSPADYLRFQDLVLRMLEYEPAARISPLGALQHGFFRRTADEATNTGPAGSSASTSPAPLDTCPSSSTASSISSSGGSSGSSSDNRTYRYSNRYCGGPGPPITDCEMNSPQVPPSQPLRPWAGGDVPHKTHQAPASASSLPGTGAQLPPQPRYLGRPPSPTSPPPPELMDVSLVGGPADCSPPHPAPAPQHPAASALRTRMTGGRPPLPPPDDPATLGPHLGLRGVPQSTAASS
Excerpt: as §1

pIC50 (CK1γ2 (NLuc-CK1γ2)): 7.97
remaining binding at 1000 µM (DYRK1A): 0.1%
remaining binding at 1 µM (CIT): 0.6%
pIC50 (CK1γ1): > 7.82 and 8.28
remaining binding at 1 µM (IRAK1): 1.1%
GSK3α PoC @ 1 µM (GSK3α): did not inhibit
remaining binding at 1 µM (CSNK1A1L): 5.9%
remaining binding at 1 µM (CSNK1D): 0%
remaining binding at 1 µM (CSNK1E): 0.3%
GSK3β PoC @ 1 µM (GSK3β): did not inhibit
remaining binding at 1 µM (CK1γ2): 4.3%
remaining binding at 1 µM (DYRK1B): 7.1%
SMILES: COc1cnc(COc2ccc(F)c(F)c2)cc1-c1cc2c([nH]1)CCNC2=O [FP1-24-2, 2-(2-((3,4-difluorophenoxy)methyl)-5-methoxypyridin-4-yl)-1,5,6,7-tetrahydro-4H-pyrrolo[3,2-c]pyridin-4-one]
